From patent publication US10604474B2, “Crystalline form of gamma-aminobutyric acid and preparation method thereof” (NANTONG LICHENG BIOLOGICAL ENGINEERING CO., LTD, priority 2016, dated 2020)

Legend:
Type in all cases: physicochemical
[1] = Moisture absorption and agglomeration
Bulk density = experiment: Bulk density
[2] = Angle of repose (flowability) measured with a 1050/70 type goniometer; details: slightly ground, smeared on horizontal quartz plate; smaller than 40° meets flowability requirements
Protocol: It is generally believed that the smaller the angle of repose, the better the flowability. When the angle of repose is smaller than 40°, flowability requirements in the production process can be met.

[3] = Scanning Electron Microscopy (SEM) characterization of crystals

| Agglomeration [1] | Bulk density (Bulk density) | Angle of repose (flowability) [2] | Particle size distribution [3] | Structure (SMILES) | Susceptibility to absorbing moisture and agglomeration [1] |
| --- | --- | --- | --- | --- | --- |
| – | 0.8 g/mL | 35 ° | uniform | NCCCC(=O)O [Embodiment 6, γ-aminobutyric acid] | not susceptible to absorbing moisture and agglomeration |
| Serious agglomeration | 0.65 g/mL | 50° | – | NCCCC(=O)O [CN101928736A, CN103509831A, CN104531795A, CN102242161A] [γ-aminobutyric acid, reference compound] | – |
| – | 0.7 g/mL | 37 ° | uniform | NCCCC(=O)O [Embodiment 5, γ-aminobutyric acid] | not susceptible to absorbing moisture and agglomeration |
| – | 0.85 g/mL | 34 ° | uniform | NCCCC(=O)O [Embodiment 3, γ-aminobutyric acid] | not susceptible to absorbing moisture and agglomeration |
| – | 0.75 g/mL | 36 ° | uniform | NCCCC(=O)O [Embodiment 4, γ-aminobutyric acid] | not susceptible to absorbing moisture and agglomeration |

The next lines start with the compound.

| Structure (SMILES) | Agglomeration [1] | Bulk density (Bulk density) | Angle of repose (flowability) [2] | Particle size distribution [3] | Susceptibility to absorbing moisture and agglomeration [1] |
| --- | --- | --- | --- | --- | --- |
| NCCCC(=O)O [Present invention, γ-aminobutyric acid] | No agglomeration | 0.80 g/mL | 35° | – | – |
| NCCCC(=O)O [Embodiment 2, γ-aminobutyric acid] | – | 0.7 g/mL | 37 ° | uniform | not susceptible to absorbing moisture and agglomeration |
| NCCCC(=O)O [Embodiment 1, γ-aminobutyric acid] | – | 0.8 g/mL | 35 ° | uniform | not susceptible to absorbing moisture and agglomeration |
